According to patent US11590202B2, “Inhibitors of LTβR-NFκB signaling pathways for treating inflammation and cancer” (University of Maryland, Baltimore, priority 2017, dated 2023):
No end group written: not given here.

What was measured:
Format in all cases: cell-based, mouse
[1] = test system: LTβR-mediated non-classical NFκB (NIK) signaling in LEC and SVEC4-10; test: Immunoblot of non-classical NFκB (NIK) signaling after LTβR activation
Protocol: (§1) LECs were lysed in buffer containing 20 mM HEPES (pH 7.4), 150 mM NaCl, 10 mM NaF, 2 mM Na3VO4, 1 mM EDTA, 1 mM EGTA, 0.5% Triton X-100, 0.1 mM DTT, 1 mM PMSF and protease inhibitor cocktail (Roche, Indianapolis, Ind.). Protein in the cell extract was quantified using protein quantification kit (Bio-Rad, Philadelphia, Pa.) and 10 μg total protein was run on Novex™ WedgeWell™ 4-20% Tris-Glycine Mini Gels (Invitrogen) and transferred to an Immobilon-P membrane (Bio-Rad). Membranes were probed with anti-NF-κB2 p100/p52, NIK, phospho-IKKα/β(Ser176/180) (16A6), IκBα, TRAF2, TRAF3, and GAPDH antibodies. For co-IP assays, 500 μg total protein of cell extract was incubated with 1 μg of anti-mLTβR (5G11b) overnight, followed by 4 hour incubation with 25 μL protein G Agarose beads (Sigma-Aldrich). The beads were then washed with lysis buffer and boiled in 2× Laemmli sample buffer (Bio-Rad).

[2] = test system: LTβR complex (TRAF2, TRAF3); test: Co-immunoprecipitation of LTβR complex with anti-LTβR; conditions: LEC pretreated, then anti-LTβR mAb for 10 minutes
Protocol: as §1

[3] = test system: LTβR-induced chemokines and cell adhesion molecules in LEC and SVEC4-10; test: LTβR-induced chemokine and adhesion molecule expression (qRT-PCR, ELISA, flow cytometry, immunohistochemistry); conditions: LEC or SVEC4-10, anti-LTβR mAb (plus CL), peptides 20 μM; for LTβR-induced CCL2 expression/production: NIKi 50 μM, BAY11 25 μM
Protocol: LECs in PBS containing 0.2 mM calcium, 0.1 mM magnesium and 0.5% w/v BSA were treated with anti-CD16/32 (clone 93, eBioscience) to block Fc receptors, and then stained with antibodies to cell surface molecules in the same buffer. Flow cytometry antibodies used were: APC-eflour780-anti-mouse CD4 (GK1.5, eBioscience); PE-anti-mouse CD25 (PC61.5, eBioscience); APC-anti-mouse VCAM-1 (clone 647, eBioscience). For detection of LTα2β1, T cells were incubated with MOPC21 or LTβRIg at 2 μg/mL for 60 minutes at 37° C. in HBSS with 2% FBS. Cells were washed, and then stained for 45 minutes at 4° C. with BV421-rat anti-mouse IgG1 along with antibodies to other cell surface markers. Cells were then washed and fixed with 4% paraformaldehyde and run on an LSR Fortessa flow cytometer (BD Biosciences, San Jose, Calif.). Results were analyzed with software FlowJo 8.7 (Treestar).
(§2) One μg of total RNA extracted using Trizol reagent (Invitrogen) was reverse-transcribed into cDNA with GoScript™ Reverse Transcription System (Promega, Fitchburg, Wis.). mRNA expression levels were quantified by real-time PCR using SYBR Green Master Mix with an ABI Prism 7900HT (Applied Biosystems, Foster City, Calif.). Values for specific gene expression were normalized to house-keeping HPRT gene expression and were calculated as: 2^(Ct of HPRT-Ct specific gene). For the microarrays, total RNA of treated mLECs was extracted with RNeasy mini kit (Qiagen, Germantown, Md.) and analyzed for purity and integrity by capillary electrophoresis on an Agilent Bioanalyzer 2100 (Agilent Technologies, Inc. Santa Clara, Calif.). 100 ng/sample was subjected to amplification, followed by labeling and hybridization to Mouse Genome 430 2.0 GeneChips (Affymetrix, Santa Clara, Calif.). Sample amplification, labeling, hybridization, and detection were performed according to the manufacturer's protocols.
5×10^5 LECs or SVEC4-10 cells were plated in 12-well plates and treated with 20 μM peptides for 30 minutes at 37° C. Cells were then washed and incubated with anti-LTβR agonistic mAb (2 μg/mL) for 30 minutes at 4° C., followed by washing and then cross-linking with anti-rat IgG (2 μg/mL) for 6 or 16 hours at 37° C. The supernatants were collected and stored in −80° C. Mouse CCL2 and CCL21 were measured with ELISA kits from Biolegend, Inc. and R&D Systems (Minneapolis, Minn.), respectively.
(§3) LEC monolayers were stained for surface VCAM-1, LTβR or Lyve-1 with rat anti-mouse VCAM-1 (Clone 429, eBioscience), rat anti-mouse LTβR (Clone 3C8, eBioscience) or rabbit anti-mouse Lyve-1 (70R-LR003, Fitzgerald, Acton, Mass.), then were fixed for 20 minutes at 4° C. with 4% (w/v) paraformaldehyde (Affymetrix), permeabilized with PBS 0.2% (v/v) Triton X-100 (Sigma-Aldrich), and treated with 2% donkey serum for 10 minutes then incubated with rabbit anti-mouse CXCL12 (eBioscience), goat-anti-mouse CCL21 (Clone AF457, R&D System), or anti-NIK mouse monoclonal antibody (Clone A-12, Santa Cruz Biotechnology) overnight at 4° C. The primary antibodies were detected with Alexa Fluor […], 647 (Cy5), or 546 (Cy3)-conjugated donkey anti-goat, donkey anti-rabbit, or donkey anti-rat secondary antibodies (Jackson ImmunoResearch, West Grove, Pa.) for 1 hour at 4° C. Transwell membranes were transferred onto glass slides and visualized by fluorescent microscopy (Zeiss LSM 510 Meta, and LSMS Duo) with a ×60 or ×20 objective. Images were analyzed with Volocity version 6.3 software.

[4] = test system: TNFR1-mediated VCAM-1 expression in LEC; test: TNFα-stimulated VCAM-1 expression in LEC (qRT-PCR); conditions: LEC stimulated with TNFα for 1 hour
Protocol: as §2

[5] = test system: LTβR-NIK signaling in LEC and SVEC4-10; test: Immunohistochemistry of LTβR, NIK and RelB in LEC and SVEC4-10; conditions: anti-LTβR for 6 hours
Protocol: as §3

[6] = test system: LEC; test: MTT viability assay; conditions: 20 μM peptides, without or with anti-LTβR mAb
Protocol: LECs were plated into 24-well tissue culture plates, incubated overnight, and treated with 20 μM peptides with or without agonist anti-LTβR (2 μg/mL) for 4 hours, followed by 3 hour incubation with 0.5 mg/mL MTT (3-(4, 5-Dimethylthiazol-2-yl)-2, 5 diphenyl tetrazolium bromide) (Sigma-Aldrich). 50 μL DMSO was added to cells before reading OD at 540 nm.

[7] = test system: classical NFκB signaling in LEC; test: Immunoblot of classical NFκB signaling (IKKα/β phosphorylation, IκBα degradation); conditions: 2 μg/mL anti-LTβR mAb or 20 ng/mL TNFα
Protocol: as §1

[8] = pretreated with peptides or inhibitors, then anti-LTβR for 6 hours

Row | Compound | TRAF2 degradation [1, 8] | TRAF2 recruitment to the LTβR complex [2] | TRAF3 recruitment to the LTβR complex [2] | LTβR-induced VCAM-1 expression [3] | LTβR-induced CCL2 expression/production [3] | NIK expression and co-localization with LTβR [5] | LEC viability (MTT) [6] | also measured
1 | CN[C@@H](C)C(=O)N[C@H]1CN(C(=O)CC(C)C)CC[C@H]2CC[C@@H](C(=O)NC(c3ccccc3)c3ccccc3)N2C1=O [AT406] | – | – | – | – | – | – | – | LTβR-mediated NIK accumulation and p100 processing ([1]; LEC and SVEC4-10, anti-LTβR mAb, 25 μM AT406): promoted more LTβR-mediated NIK accumulation and p100 processing
2 | CC(C)(C)c1ccc(S(=O)(=O)/C=C/C#N)cc1 [BAY11-7085] | not BAY11-7085 also prevented | not BAY11-7085 was sufficient to inhibit | not BAY11-7085 was sufficient to inhibit | suppressed | suppressed | neither ciLT, BAY11-7085, nor NIKi affected | – | TNFR1-mediated VCAM-1 expression [4]: significantly inhibited
3 | O=C1Cc2ccccc2C(=O)N1 [NIKi, 4H-isoquinoline-1,3-dione] | inhibited TRAF2 degradation | blocked | blocked | did not affect | partial inhibitory effect | neither ciLT, BAY11-7085, nor NIKi affected | – | p100 processing to p52 [1, 8]: prevented; LTβR-induced CCL21 transcription and production [3]: inhibited
4 | RQIKIWFQNRRMKWKKPEEGAPGP [ciLT] | – | – | – | – | – | – | did not affect | –
5 | RQIKIWFQNRRMKWKKTGNIYIYNGPVL [nciLT] | – | – | – | – | – | – | did not affect | –
6 | TNFα | – | – | – | – | – | – | – | early classical NFκB activation (IKKα/β phosphorylation, IκBα degradation) [7]: induced strong IKKα/β phosphorylation and IκBα degradation
